According to ChEMBL document CHEMBL1909046, “DrugMatrix in vitro pharmacology data”:

Columns and labels:
[1] = target: T1, C-X-C chemokine receptor type 2 (Homo sapiens, UniProt P25025); type: cell membranes, Membrane; details: cho-k1; note: in other assays of this panel Not Active means under 50% inhibition at 10 µM
T1 sequence (P25025 whole entry): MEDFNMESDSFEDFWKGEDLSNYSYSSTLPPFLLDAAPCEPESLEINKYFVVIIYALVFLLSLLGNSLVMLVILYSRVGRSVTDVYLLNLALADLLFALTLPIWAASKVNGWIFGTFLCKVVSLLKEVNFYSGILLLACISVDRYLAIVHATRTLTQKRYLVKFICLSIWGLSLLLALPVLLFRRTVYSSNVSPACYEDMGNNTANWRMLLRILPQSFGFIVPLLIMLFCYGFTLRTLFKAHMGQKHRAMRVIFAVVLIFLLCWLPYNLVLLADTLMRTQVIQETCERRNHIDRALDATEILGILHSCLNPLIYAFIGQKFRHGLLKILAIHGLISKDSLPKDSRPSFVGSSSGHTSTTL

[2] = target: T2, Angiotensin-converting enzyme (Oryctolagus cuniculus, UniProt P12822); type: tissue-based, Lung;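 note: enzymatic inhibition of angiotensin-converting enzyme measured with FAPGG as the substrate; in other assays of this panel Not Active means under 50% inhibition at 10 µM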
T2 sequence (P12822 whole entry): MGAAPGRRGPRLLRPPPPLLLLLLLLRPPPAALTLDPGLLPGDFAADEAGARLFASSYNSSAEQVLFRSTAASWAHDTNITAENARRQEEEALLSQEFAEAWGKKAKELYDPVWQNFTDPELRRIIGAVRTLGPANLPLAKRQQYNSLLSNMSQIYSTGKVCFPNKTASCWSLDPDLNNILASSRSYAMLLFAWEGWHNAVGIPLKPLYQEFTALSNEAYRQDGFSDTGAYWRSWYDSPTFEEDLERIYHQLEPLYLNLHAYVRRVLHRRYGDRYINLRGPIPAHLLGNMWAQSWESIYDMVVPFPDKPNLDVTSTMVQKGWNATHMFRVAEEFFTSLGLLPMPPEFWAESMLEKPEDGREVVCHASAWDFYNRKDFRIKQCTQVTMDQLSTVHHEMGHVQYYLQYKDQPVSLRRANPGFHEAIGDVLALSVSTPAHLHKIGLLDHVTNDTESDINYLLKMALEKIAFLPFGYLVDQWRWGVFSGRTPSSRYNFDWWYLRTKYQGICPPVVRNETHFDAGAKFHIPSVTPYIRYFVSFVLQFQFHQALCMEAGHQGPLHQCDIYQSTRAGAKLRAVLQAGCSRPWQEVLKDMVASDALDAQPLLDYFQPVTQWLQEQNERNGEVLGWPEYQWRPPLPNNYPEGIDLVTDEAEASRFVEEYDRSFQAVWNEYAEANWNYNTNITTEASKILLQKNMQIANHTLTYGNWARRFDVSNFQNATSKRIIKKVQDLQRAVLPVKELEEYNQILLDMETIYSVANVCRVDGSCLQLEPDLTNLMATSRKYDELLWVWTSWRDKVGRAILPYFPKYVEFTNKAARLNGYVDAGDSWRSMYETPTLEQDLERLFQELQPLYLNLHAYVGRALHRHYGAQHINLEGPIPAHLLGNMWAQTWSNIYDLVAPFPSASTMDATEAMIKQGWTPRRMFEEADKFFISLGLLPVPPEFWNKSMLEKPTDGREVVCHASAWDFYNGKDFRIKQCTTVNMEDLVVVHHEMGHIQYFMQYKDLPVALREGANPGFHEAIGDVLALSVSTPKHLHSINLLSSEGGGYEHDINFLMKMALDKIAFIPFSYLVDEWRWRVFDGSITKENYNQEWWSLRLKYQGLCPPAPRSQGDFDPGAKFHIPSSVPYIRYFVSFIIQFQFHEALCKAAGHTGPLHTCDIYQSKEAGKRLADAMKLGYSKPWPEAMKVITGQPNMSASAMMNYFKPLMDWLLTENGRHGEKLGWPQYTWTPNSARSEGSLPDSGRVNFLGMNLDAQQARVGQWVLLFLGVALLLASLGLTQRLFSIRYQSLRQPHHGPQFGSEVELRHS

[3] = target: Cytochrome P450 2D6 (Homo sapiens, UniProt P10635); details: bti-tn-5b1-4; note: in other assays of this panel Not Active means under 50% inhibition at 10 µM
Sequence of Cytochrome P450 2D6 (P10635 whole entry): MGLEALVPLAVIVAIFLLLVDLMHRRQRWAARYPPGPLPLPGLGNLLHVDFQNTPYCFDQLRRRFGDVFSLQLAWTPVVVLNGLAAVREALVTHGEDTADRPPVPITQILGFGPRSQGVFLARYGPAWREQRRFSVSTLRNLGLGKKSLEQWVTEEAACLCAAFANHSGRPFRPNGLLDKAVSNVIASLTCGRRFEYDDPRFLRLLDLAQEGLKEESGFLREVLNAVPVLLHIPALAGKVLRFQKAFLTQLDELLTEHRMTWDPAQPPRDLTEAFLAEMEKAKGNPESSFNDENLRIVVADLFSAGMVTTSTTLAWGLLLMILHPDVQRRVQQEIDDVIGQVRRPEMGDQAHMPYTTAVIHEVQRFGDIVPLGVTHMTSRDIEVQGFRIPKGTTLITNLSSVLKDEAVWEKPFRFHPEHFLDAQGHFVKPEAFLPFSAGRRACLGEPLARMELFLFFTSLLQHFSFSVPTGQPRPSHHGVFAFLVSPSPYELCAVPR

[4] = DRUGMATRIX: Nicotinic Acetylcholine radioligand binding (ligand: [125I] Epibatidine); type: cell membranes, Membrane; details: imr-32; Not Active = under 50% inhibition at 10 µM
[5] = target: Vascular endothelial growth factor receptor 1 (Homo sapiens, UniProt P17948); type: cell-based; details: huvec; note: in other assays of this panel Not Active means under 50% inhibition at 10 µM
Sequence of Vascular endothelial growth factor receptor 1 (P17948 whole entry): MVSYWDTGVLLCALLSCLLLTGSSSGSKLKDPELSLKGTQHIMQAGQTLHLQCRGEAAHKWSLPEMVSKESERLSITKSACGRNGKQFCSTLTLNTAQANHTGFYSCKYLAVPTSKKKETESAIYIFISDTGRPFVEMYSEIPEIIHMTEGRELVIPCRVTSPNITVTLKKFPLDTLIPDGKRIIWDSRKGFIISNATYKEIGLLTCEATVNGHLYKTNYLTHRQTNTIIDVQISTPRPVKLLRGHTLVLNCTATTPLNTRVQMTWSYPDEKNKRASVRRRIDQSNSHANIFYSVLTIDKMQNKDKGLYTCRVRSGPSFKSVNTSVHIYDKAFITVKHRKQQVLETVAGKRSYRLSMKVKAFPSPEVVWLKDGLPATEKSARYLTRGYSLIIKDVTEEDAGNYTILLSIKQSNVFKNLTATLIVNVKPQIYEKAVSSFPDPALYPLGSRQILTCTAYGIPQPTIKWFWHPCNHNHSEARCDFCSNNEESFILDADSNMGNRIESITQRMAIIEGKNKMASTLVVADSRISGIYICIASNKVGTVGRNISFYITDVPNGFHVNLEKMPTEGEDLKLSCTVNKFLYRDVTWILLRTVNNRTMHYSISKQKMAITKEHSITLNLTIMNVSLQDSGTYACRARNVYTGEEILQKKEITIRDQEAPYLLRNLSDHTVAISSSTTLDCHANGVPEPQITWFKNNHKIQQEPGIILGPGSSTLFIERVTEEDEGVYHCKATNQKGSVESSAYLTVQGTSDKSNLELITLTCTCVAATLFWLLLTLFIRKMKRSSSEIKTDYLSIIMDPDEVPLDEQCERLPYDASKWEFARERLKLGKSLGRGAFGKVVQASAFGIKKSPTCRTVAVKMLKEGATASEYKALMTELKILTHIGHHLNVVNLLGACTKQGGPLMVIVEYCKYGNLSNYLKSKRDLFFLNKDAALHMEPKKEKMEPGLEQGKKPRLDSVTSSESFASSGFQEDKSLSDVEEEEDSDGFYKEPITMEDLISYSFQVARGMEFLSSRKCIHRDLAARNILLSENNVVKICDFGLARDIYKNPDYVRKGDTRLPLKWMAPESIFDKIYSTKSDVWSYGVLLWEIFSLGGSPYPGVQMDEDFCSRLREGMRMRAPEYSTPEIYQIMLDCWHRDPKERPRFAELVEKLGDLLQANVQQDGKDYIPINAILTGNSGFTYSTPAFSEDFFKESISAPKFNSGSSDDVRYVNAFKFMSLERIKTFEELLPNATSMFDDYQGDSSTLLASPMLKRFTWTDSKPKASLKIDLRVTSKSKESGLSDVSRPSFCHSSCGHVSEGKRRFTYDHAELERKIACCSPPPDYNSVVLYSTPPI

[6] = DRUGMATRIX: Calcium Channel Type L, Benzothiazepine radioligand binding (ligand: [3H] Diltiazem); type: cell membranes, Rattus norvegicus, Wistar, Brain, Membrane; details: Not Active = under 50% inhibition at 10 µM
[7] = target: Melanocortin receptor 3 (Homo sapiens, UniProt P41968); type: cell membranes, Membrane; details: hek293; note: in other assays of this panel Not Active means under 50% inhibition at 10 µM
Sequence of Melanocortin receptor 3 (P41968 whole entry): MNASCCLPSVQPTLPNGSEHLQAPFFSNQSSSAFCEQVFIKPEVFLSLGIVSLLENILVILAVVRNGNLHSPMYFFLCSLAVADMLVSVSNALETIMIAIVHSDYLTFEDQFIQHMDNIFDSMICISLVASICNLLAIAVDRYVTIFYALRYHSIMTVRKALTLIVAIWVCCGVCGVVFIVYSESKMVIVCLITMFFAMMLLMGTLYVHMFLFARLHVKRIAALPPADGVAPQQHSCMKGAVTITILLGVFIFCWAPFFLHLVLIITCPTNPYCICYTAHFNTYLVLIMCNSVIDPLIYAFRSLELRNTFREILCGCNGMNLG

[8] = target: Melanocortin receptor 5 (Homo sapiens, UniProt P33032); type: cell membranes, Membrane; details: hek293; note: in other assays of this panel Not Active means under 50% inhibition at 10 µM
Sequence of Melanocortin receptor 5 (P33032 whole entry): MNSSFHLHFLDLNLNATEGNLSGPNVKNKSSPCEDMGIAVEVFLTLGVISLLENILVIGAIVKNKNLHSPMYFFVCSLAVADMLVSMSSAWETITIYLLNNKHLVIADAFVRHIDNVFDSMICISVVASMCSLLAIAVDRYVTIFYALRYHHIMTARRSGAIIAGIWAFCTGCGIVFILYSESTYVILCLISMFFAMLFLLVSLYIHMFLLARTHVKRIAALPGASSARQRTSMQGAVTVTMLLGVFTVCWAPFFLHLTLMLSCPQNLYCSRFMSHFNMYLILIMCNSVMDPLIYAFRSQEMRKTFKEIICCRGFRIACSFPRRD

[9] = DRUGMATRIX: Sodium/nucleoside co-transporter radioligand binding (ligand: nitrobenzylthioinosine); type: cell membranes, Cavia porcellus, Dunkin-Hartley, Cerebral cortex, Membrane; details: Not Active = under 50% inhibition at 10 µM
[10] = target: T3, 5-hydroxytryptamine receptor 1A (Rattus norvegicus, UniProt P19327); type: cell membranes, Membrane; details: cho-k1; note: in other assays of this panel Not Active means under 50% inhibition at 10 µM
T3 sequence (P19327 whole entry): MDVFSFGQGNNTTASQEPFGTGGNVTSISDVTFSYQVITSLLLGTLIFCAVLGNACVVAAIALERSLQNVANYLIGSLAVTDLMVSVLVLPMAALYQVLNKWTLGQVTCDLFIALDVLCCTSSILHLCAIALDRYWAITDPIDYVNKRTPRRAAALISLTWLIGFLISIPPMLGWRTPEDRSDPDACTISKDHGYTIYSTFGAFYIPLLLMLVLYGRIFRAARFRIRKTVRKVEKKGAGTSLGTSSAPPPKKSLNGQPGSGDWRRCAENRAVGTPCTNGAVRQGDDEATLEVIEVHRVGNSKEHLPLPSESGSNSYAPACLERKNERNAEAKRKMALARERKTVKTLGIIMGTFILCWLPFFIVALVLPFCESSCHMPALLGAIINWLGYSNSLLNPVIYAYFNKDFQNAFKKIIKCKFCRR

CC1=C(CC(=O)O)c2cc(F)ccc2/C1=C\c1ccc([S+](C)[O-])cc1 (centres undefined)
IC50 [1]: Not Active | IC50 [2]: Not Active | IC50 [3]: Not Active | Ki [3]: Not Active | IC50 [4]: Not Active | Ki [4]: Not Active | IC50 [5]: Not Active | IC50 [6]: Not Active | Ki [6]: Not Active | IC50 [7]: Not Active | IC50 [8]: Not Active | IC50 [9]: Not Active | Ki [9]: Not Active | IC50 [10]: Not Active

N[C@H](CSC(=S)NCc1ccccc1)C(=O)O
IC50 [1]: Not Active | IC50 [2]: Not Active | IC50 [3]: Not Active | Ki [3]: Not Active | IC50 [4]: Not Active | Ki [4]: Not Active | IC50 [5]: Not Active | IC50 [6]: Not Active | Ki [6]: Not Active | IC50 [7]: Not Active | IC50 [8]: Not Active | IC50 [9]: Not Active | Ki [9]: Not Active | IC50 [10]: Not Active

CC(=O)N[C@@H]1[C@H](Oc2c3cc4cc2Oc2ccc(cc2Cl)[C@@H](O[C@@H]2O[C@@H](CO)[C@@H](O)[C@H](O)[C@@H]2NC(C)=O)[C@@H]2NC(=O)[C@H](NC(=O)[C@@H]4NC(=O)[C@H]4NC(=O)[C@@H](Cc5ccc(c(Cl)c5)O3)NC(=O)[C@H](N)c3ccc(O)c(c3)Oc3cc(O)cc4c3)c3ccc(O)c(c3)-c3c(O[C@H]4O[C@H](CO)[C@@H](O)[C@@H](O)[C@@H]4O)cc(O)cc3[C@@H](C(=O)O)NC2=O)O[C@@H](CO)[C@@H](O)[C@@H]1O
IC50 [1]: Not Active | IC50 [2]: Not Active | IC50 [3]: Not Active | Ki [3]: Not Active | IC50 [4]: Not Active | Ki [4]: Not Active | IC50 [5]: Not Active | IC50 [6]: Not Active | Ki [6]: Not Active | IC50 [7]: Not Active | IC50 [8]: Not Active | IC50 [9]: Not Active | Ki [9]: Not Active | IC50 [10]: Not Active

Clc1ccc2c(c1)C(N1CCNCC1)=Nc1ccccc1O2 [AMOXAPINE]
IC50 [1]: Not Active | IC50 [2]: Not Active | IC50 [5]: Not Active | IC50 [7]: Not Active | IC50 [8]: Not Active | IC50 [10]: Not Active

COc1cc2c(c(OC)c1OC)-c1ccc(OC)c(=O)cc1[C@@H](NC(C)=O)CC2 [COLCHICINE]
IC50 [1]: Not Active | IC50 [2]: Not Active | IC50 [3]: Not Active | Ki [3]: Not Active | IC50 [5]: Not Active | IC50 [7]: Not Active | IC50 [8]: Not Active | IC50 [10]: Not Active

CN1CCC(=C2c3ccccc3C=Cc3ccccc32)CC1 [CYPROHEPTADINE]
IC50 [1]: Not Active | IC50 [2]: Not Active | IC50 [3]: Not Active | Ki [3]: Not Active | IC50 [5]: Not Active | IC50 [7]: Not Active | IC50 [8]: Not Active

CC/C(=C(/CC)c1ccc(O)cc1)c1ccc(O)cc1 [DIETHYLSTILBESTROL]
IC50 [1]: Not Active | IC50 [2]: Not Active | IC50 [3]: Not Active | Ki [3]: Not Active | IC50 [5]: Not Active | IC50 [7]: Not Active | IC50 [8]: Not Active | IC50 [10]: Not Active

CC(=O)N1CCN(c2ccc(OCC3COC(Cn4ccnc4)(c4ccc(Cl)cc4Cl)O3)cc2)CC1 (centres undefined) [KETOCONAZOLE]
IC50 [1]: Not Active | IC50 [2]: Not Active | IC50 [4]: Not Active | Ki [4]: Not Active | IC50 [5]: Not Active | IC50 ([6]; read-out: IC50): 32000 nM | Ki ([6]; read-out: Ki): 28500 nM | IC50 [7]: Not Active | IC50 [8]: Not Active | IC50 ([9]; read-out: IC50): 4410 nM | Ki ([9]; read-out: Ki): 1510 nM | IC50 [10]: Not Active

C=CCN1CC[C@]23c4c5ccc(O)c4O[C@H]2C(=O)CC[C@@]3(O)[C@H]1C5 [NALOXONE]
IC50 [1]: Not Active | IC50 [2]: Not Active | IC50 [5]: Not Active | IC50 [7]: Not Active | IC50 [8]: Not Active | IC50 [10]: Not Active

COCCOC(=O)C1=C(C)NC(C)=C(C(=O)OC(C)C)C1c1cccc([N+](=O)[O-])c1 (centres undefined) [NIMODIPINE]
IC50 [1]: Not Active | IC50 [2]: Not Active | IC50 [4]: Not Active | Ki [4]: Not Active | IC50 [5]: Not Active | IC50 ([6]; read-out: IC50): 2.09 nM | Ki ([6]; read-out: Ki): 1.86 nM | IC50 [7]: Not Active | IC50 [8]: Not Active | IC50 ([9]; read-out: IC50): 1270 nM | Ki ([9]; read-out: Ki): 433 nM | IC50 [10]: Not Active

CC(C)NCC(O)COc1cccc2ccccc12 (centres undefined) [PROPRANOLOL]
IC50 [1]: Not Active | IC50 [2]: Not Active | IC50 [5]: Not Active | IC50 [7]: Not Active | IC50 [8]: Not Active

COCCCOc1ccnc(C[S+]([O-])c2nc3ccccc3[nH]2)c1C (centres undefined) [RABEPRAZOLE]
IC50 [1]: Not Active | IC50 [2]: Not Active | IC50 [3]: Not Active | Ki [3]: Not Active | IC50 [4]: Not Active | Ki [4]: Not Active | IC50 [5]: Not Active | IC50 [6]: Not Active | Ki [6]: Not Active | IC50 [7]: Not Active | IC50 [8]: Not Active | IC50 [9]: Not Active | Ki [9]: Not Active | IC50 [10]: Not Active

O=C(c1ccc(OCCN2CCCCC2)cc1)c1c(-c2ccc(O)cc2)sc2cc(O)ccc12 [RALOXIFENE]
IC50 [1]: Not Active | IC50 [2]: Not Active | IC50 [3]: Not Active | Ki [3]: Not Active | IC50 [4]: Not Active | Ki [4]: Not Active | IC50 [5]: Not Active | Ki ([6]; read-out: Ki): 368 nM | IC50 [7]: Not Active | IC50 [8]: Not Active | IC50 [9]: Not Active | Ki [9]: Not Active | IC50 [10]: Not Active

CNC(=C[N+](=O)[O-])NCCSCc1ccc(CN(C)C)o1 [RANITIDINE]
IC50 [1]: Not Active | IC50 [2]: Not Active | IC50 [3]: Not Active | Ki [3]: Not Active | IC50 [4]: Not Active | Ki [4]: Not Active | IC50 [5]: Not Active | IC50 [6]: Not Active | Ki [6]: Not Active | IC50 [7]: Not Active | IC50 [8]: Not Active | IC50 [9]: Not Active | Ki [9]: Not Active | IC50 [10]: Not Active

CC(C)c1nc(CN(C)C(=O)N[C@H](C(=O)N[C@@H](Cc2ccccc2)C[C@H](O)[C@H](Cc2ccccc2)NC(=O)OCc2cncs2)C(C)C)cs1 [RITONAVIR]
IC50 [1]: Not Active | IC50 [2]: Not Active | IC50 [4]: Not Active | Ki [4]: Not Active | IC50 [5]: Not Active | IC50 [6]: Not Active | Ki [6]: Not Active | IC50 [7]: Not Active | IC50 [8]: Not Active | IC50 [9]: Not Active | Ki [9]: Not Active | IC50 [10]: Not Active
